This is an account of results in patent publication US8747873B2, “Compositions of dibromomalonamide and their use as biocides” (Dow Global Technologies LLC, priority 2012, dated 2014).

Usually inhibition stands for the change of the read-out against control, counted positive when it falls.

Experiment [1] has as its system mixture of Pseudomonas aeruginosa, Klebsiella pneumoniae, Staphylococcus aureus, and Bacillus subtilis. Nature of the experiment: Growth inhibition assay. The class given is cell-based. As to conditions: for % Inhibition of growth by CTAC: Table 3, single active. The source says:
The growth inhibition assay used in the Examples measures inhibition of growth (or lack thereof) of a microbial consortium. Inhibition of growth can be the result of killing of the cells (so no growth occurs), killing of a significant portion of the populations of cells so that regrowth requires a prolonged time, or inhibition of growth without killing (stasis). Regardless of the mechanism of action, the impact of a biocide (or combination of biocides) can be measured over time on the basis of an increase in the size of the community.
The assay measures the efficacy of one or more biocides at preventing growth of a consortium of bacteria in a dilute mineral salts medium. The medium contains (in mg/l) the following components: FeCl3.6H2O (1); CaCl2.2H2O (10); MgSO4.7H2O (22.5); (NH4)2SO4 (40); KH2PO4 (10); K2HPO4 (25.5); Yeast Extract (10); and glucose (100). After all components are added to deionized water, the pH of the medium is adjusted to 7.5. Following filter sterilization, aliquots are dispensed in 100 ul quantities to sterile microtiter plate wells. Dilutions of DBMAL and/or “Biocide B” are then added to the microtiter plate. After preparing the combinations of actives as illustrated below, each well is inoculated with 100 μl of a cell suspension containing ca. 1×10^6 cells per milliliter of a mixture of Pseudomonas aeruginosa, Klebsiella pneumoniae, Staphylococcus aureus, and Bacillus subtilis. The final total volume of medium in each well is 300 μl. […] The resulting matrix allows testing of eight concentrations of each active and 64 combinations of actives in the ratios (of actives).
Controls (not shown) contain the medium with no biocide added. After preparing the combinations of actives as illustrated above, each well is inoculated with 100 μl of a cell suspension containing ca. 1×10^6 cells per milliliter of a mixture of Pseudomonas aeruginosa, Klebsiella pneumoniae, Staphylococcus aureus, and Bacillus subtilis. The final total volume of medium in each well is 300 μl.
Immediately after the microtiter plates are prepared, the optical density (OD) readings for each well is measured at 580 nm and the plates are then incubated at 37° C. for 24 hr. After the incubation period, the plates are gently agitated before OD580 values are collected. The OD580 values at T0 are subtracted from T24 values to determine the total amount of growth (or lack thereof) that occurs. These values are used to calculate the percent inhibition of growth caused by the presence of each biocide and each of the 64 combinations. A 90% inhibition of growth is used as a threshold for calculating synergy index (SI) values with the following equation: Synergy Index=MDBMAL/CDBMAL+MB/CB
where • CDBMAL: Concentration of DBMAL required to inhibit ˜90% of bacterial growth when used alone • CB: Concentration of biocide (B) required to inhibit ˜90% of bacterial growth when used alone. • MDBMAL: Concentration of DBMAL required to inhibit ˜90% of bacterial growth when used in combination with biocide (B). • MB: Concentration of biocide (B) required to inhibit ˜90% of bacterial growth when used in combination with DBMAL The SI values are interpreted as follows: • SI<1: Synergistic combination • SI=1: Additive combination • SI>1: Antagonistic combination

Experiment [2] concerns mixture of Pseudomonas aeruginosa ATCC 10145 and Staphylococcus aureus ATCC 6538. Put plainly: Kill assay (MBC, synergy index). It is filed as cell-based. As to conditions: 37° C., 2 hours. Here is the method:
This assay is used as a preliminary evaluation of synergy between the actives. The procedure is as follows. A mineral salts solution (0.2203 g of CaCl2, 0.1847 g of MgSO4, and 0.2033 g of NaHCO3 in 1 L water, approximately pH 8) is inoculated with equal amounts (about 10^7 CFU/ml) of a mixture of Pseudomonas aeruginosa ATCC 10145 and Staphylococcus aureus ATCC 6538. Aliquots of the cell suspension are then treated with 2,2-dibromomalonamide (“DBMAL”), […], and their combinations at various concentration levels. […] The MBC values are then used to calculate a synergy index (SI) values.
Summaries of the kill assay results are presented in the individual Examples. In each table, MBC values for each biocide and the blends tested are presented Likewise, the Synergy Index (“SI”) values for the combinations are listed. SI is calculated with the following equation: Synergy Index=Ca/CA+Mb/CB […]

Read-outs that look alike come from different tables or passages of the source.

For “1-(3-chloroallyl)-3,5,7-triaza-1-azoniaadamantane chloride [CTAC]”, the “% Inhibition of growth by CTAC” value stood at 0% in experiment [1] (CTAC Concn. 3.91 mg/l, 24 h); 18% in experiment [1] (CTAC Concn. 7.81 mg/l, 24 h); 20% in experiment [1] (CTAC Concn. 15.63 mg/l, 24 h); 21% in experiment [1] (CTAC Concn. 31.25 mg/l, 24 h); 0% in experiment [1] (CTAC Concn. 62.5 mg/l, 24 h); 100% in experiment [1] (CTAC Concn. 125.0 mg/l, 24 h). Besides, the “% Inhibition of growth by CTAC” value in experiment [1] (CTAC Concn. 250.0 mg/l, 24 h) is given as 100%; in experiment [1] (CTAC Concn. 500.0 mg/l, 24 h), 100%.
Take `CC1(C)COCN1` [4,4-D, 4,4-Dimethyloxazolidine]: the inhibition at 7.81 µg/mL in experiment [1] (24 h, 4,4-D alone 7.81 mg/l, read-out: % Inhibition of growth by 4,4-D) was found to be 0%. Moreover, the inhibition at 15.63 µg/mL in experiment [1] (24 h, 4,4-D alone 15.63 mg/l, read-out: % Inhibition of growth by 4,4-D) was determined as 2%. Also, the inhibition at 31.25 µg/mL in experiment [1] (24 h, 4,4-D alone 31.25 mg/l, read-out: % Inhibition of growth by 4,4-D) worked out at 13%. The inhibition at 62.5 µg/mL in experiment [1] (24 h, 4,4-D alone 62.5 mg/l, read-out: % Inhibition of growth by 4,4-D) was found to be 98%. The inhibition at 125 µg/mL in experiment [1] (24 h, 4,4-D alone 125.0 mg/l, read-out: % Inhibition of growth by 4,4-D) turned out to be 100%. Also, the inhibition at 250 µg/mL in experiment [1] (24 h, 4,4-D alone 250.0 mg/l, read-out: % Inhibition of growth by 4,4-D) came out at 99%. In addition, the inhibition at 500 µg/mL in experiment [1] (24 h, 4,4-D alone 500.0 mg/l, read-out: % Inhibition of growth by 4,4-D) was 100%. Also, in experiment [1] (24 h, 4,4-D alone 1000.0 mg/l, read-out: % Inhibition of growth by 4,4-D), the inhibition at 1000 µg/mL was determined as 100%.
With `ClC=CC[N+]12CN3CN(CN(C3)C1)C2` [CTAC, 1-(3-chloroallyl)-3,5,7-triaza-1-azoniaadamantane chloride], in experiment [1] (24 h, Table 6, CTAC alone 1.95 mg/l), the inhibition at 1.95 µg/mL worked out at 0%. Also, in experiment [1] (24 h, Table 6, CTAC alone 3.91 mg/l), the inhibition at 3.91 µg/mL was 0%. Further, in experiment [1] (24 h, Table 6, CTAC alone 7.81 mg/l, read-out: % Inhibition of growth by CTAC), the inhibition at 7.81 µg/mL worked out at 9%. Besides, in experiment [1] (24 h, Table 6, CTAC alone 15.625 mg/l), the inhibition at 15.625 µg/mL turned out to be 0%. Also, the inhibition at 31.25 µg/mL in experiment [1] (24 h, Table 6, CTAC alone 31.25 mg/l, read-out: % Inhibition of growth by CTAC) was determined as 35%. Further, the inhibition at 62.5 µg/mL in experiment [1] (24 h, Table 6, CTAC alone 62.5 mg/l, read-out: % Inhibition of growth by CTAC) came to 41%. Moreover, the inhibition at 125 µg/mL in experiment [1] (24 h, Table 6, CTAC alone 125.0 mg/l, read-out: % Inhibition of growth by CTAC) amounted to 100%. The inhibition at 250 µg/mL in experiment [1] (24 h, Table 6, CTAC alone 250.0 mg/l, read-out: % Inhibition of growth by CTAC) is 98%.
On to `CCC12COCN1COC2` [EBO, 7-ethyl bicyclooxazolidine], for which the “% Inhibition of growth by EBO” value in experiment [1] (EBO alone 7.81 mg/l, 24 h) is 0%; in experiment [1] (EBO alone 15.63 mg/l, 24 h), 0%; in experiment [1] (EBO alone 31.25 mg/l, 24 h), 0%; in experiment [1] (EBO alone 62.5 mg/l, 24 h), 3%; in experiment [1] (EBO alone 125.0 mg/l, 24 h) it was 10%; in experiment [1] (EBO alone 250.0 mg/l, 24 h), 71%. Also, the “% Inhibition of growth by EBO” value in experiment [1] (EBO alone 500.0 mg/l, 24 h) worked out at 96%; in experiment [1] (EBO alone 1000.0 mg/l, 24 h) it was 100%.
Take `O=CCCCC=O` [Glut, glutaraldehyde]: the “MBC (minimum biocide concentration needed to completely kill), biocide alone” value in experiment [2] was determined as 29.6 µg/mL. The “concentration needed to provide at least 90% inhibition of growth” value in experiment [1] (biocide alone, 24 h) came out at 125 mg/L.
As for `CCN1CN(CC)CN(CC)C1` [TEHT, 1,3,5-Triethylhexahydro-s-triazine], in experiment [1] (24 h, TEHT alone 0.19 mg/l, read-out: % Inhibition of growth by TEHT), the inhibition at 0.19 µg/mL was determined as 10%. Moreover, the inhibition at 0.39 µg/mL in experiment [1] (24 h, TEHT alone 0.39 mg/l, read-out: % Inhibition of growth by TEHT) stood at 11%. In experiment [1] (24 h, TEHT alone 0.78 mg/l, read-out: % Inhibition of growth by TEHT), the inhibition at 0.78 µg/mL was 10%. Besides, the inhibition at 1.56 µg/mL in experiment [1] (24 h, TEHT alone 1.56 mg/l, read-out: % Inhibition of growth by TEHT) is 22%. Further, in experiment [1] (24 h, TEHT alone 3.13 mg/l, read-out: % Inhibition of growth by TEHT), the inhibition at 3.13 µg/mL was 49%. Further, in experiment [1] (24 h, TEHT alone 6.25 mg/l, read-out: % Inhibition of growth by TEHT), the inhibition at 6.25 µg/mL was found to be 82%. The inhibition at 12.5 µg/mL in experiment [1] (24 h, TEHT alone 12.5 mg/l, read-out: % Inhibition of growth by TEHT) was 98%. Besides, the inhibition at 25 µg/mL in experiment [1] (24 h, TEHT alone 25.0 mg/l, read-out: % Inhibition of growth by TEHT) worked out at 100%.
As for `O=[N+]([O-])C(CO)(CO)CO` [TN, tris(hydroxymethyl)nitromethane], the inhibition at 7.81 µg/mL in experiment [1] (24 h, TN alone 7.81 mg/l, read-out: % Inhibition of growth by TN) was found to be 0%. The inhibition at 15.63 µg/mL in experiment [1] (24 h, TN alone 15.63 mg/l, read-out: % Inhibition of growth by TN) worked out at 4%. Besides, in experiment [1] (24 h, TN alone 31.25 mg/l, read-out: % Inhibition of growth by TN), the inhibition at 31.25 µg/mL was 0%. In addition, in experiment [1] (24 h, TN alone 62.5 mg/l, read-out: % Inhibition of growth by TN), the inhibition at 62.5 µg/mL came out at 50%. The inhibition at 125 µg/mL in experiment [1] (24 h, TN alone 125.0 mg/l, read-out: % Inhibition of growth by TN) was 100%. Moreover, the inhibition at 250 µg/mL in experiment [1] (24 h, TN alone 250.0 mg/l, read-out: % Inhibition of growth by TN) stood at 100%. In addition, the inhibition at 500 µg/mL in experiment [1] (24 h, TN alone 500.0 mg/l, read-out: % Inhibition of growth by TN) came out at 100%. In experiment [1] (24 h, TN alone 1000.0 mg/l, read-out: % Inhibition of growth by TN), the inhibition at 1000 µg/mL stood at 100%.
